# Values quoted from earlier work in patent US7771744B2, “Bazedoxifene acetate formulations” (Wyeth LLC, priority 2005, dated 2010).
# Assays:
# [1] = system: MCF-7 cell line (human breast cancer cell line)
# [2] = system: bone loss and cholesterol; details: ovariectomized rat model of osteopenia
# [3] = system: uterine response; details: preclinical models of uterine stimulation
Compound,solubility in aqueous and organic solvent systems compared with form B,estrogen antagonist behaviour [1],effect on bone loss and cholesterol [2],stimulation of uterine response [3]
"Cc1c(-c2ccc(O)cc2)n(Cc2ccc(OCCN3CCCCCC3)cc2)c2ccc(O)cc12 [Form A, 1-[4-(2-azepan-1-yl-ethoxy)-benzyl]-2-(4-hydroxy-phenyl)-3-methyl-1H-indol-5-ol acetic acid]",higher solubility,,,
"Cc1c(-c2ccc(O)cc2)n(Cc2ccc(OCCN3CCCCCC3)cc2)c2ccc(O)cc12 [bazedoxifene acetate, 1-[4-(2-azepan-1-yl-ethoxy)-benzyl]-2-(4-hydroxy-phenyl)-3-methyl-1H-indol-5-ol acetic acid]",,behaves as an estrogen antagonist,estrogen agonist-like effect in preventing bone loss and reducing cholesterol,little or no stimulation of uterine response
